Experimental data taken from US20130261066A1, “TREATMENT OF INFLAMMATORY BOWEL DISEASES USING A TRIPEPTIDE” (THE RESEARCH FOUNDATION OF STATE UNIVERSITY OF NEW YORK, priority 2010, published 2013).
Entries after “also recorded” stand apart in the source; their conditions may differ.

Columns and labels:
[1] = tested on: DSS-induced colitis; assay: DSS-induced colitis in mice, MC12 40 or 80 μg/mouse ip (Example 1); format: in vivo
Procedure: Female C57BL/6 and SJL/J mice (Taconic, Hudson, N.Y.), 7-9 weeks old, were kept under controlled temperature (25° C.) with a 12/12-hour light-dark cycle and free access to standard diet and drinking water. The mice were allowed to acclimate for 7 days before the start of experiments.
The mice received 2% dextran sulfate sodium (DSS, MW 36,000 to 50,000, MP Biomedicals, Solon, Ohio) in drinking water for 7 days; control mice received regular drinking water. During the period when DSS was administered, treated mice were given MC12 40 or 80 μg/mouse intraperitoneally (i.p.) whereas the control group was given saline i.p. The mice were weighed and monitored for rectal bleeding or prolapse daily. All mice were euthanized at the end of the study. Blood samples were collected and colons were dissected and their length was measured. The middle part of colon was fixed in 4% neutralized formalin and the rest was frozen for molecular analyses.
Paraffin-embedded tissue sections were stained with hematoxylin and eosin (H&E). In these sections, the histological score was determined based on epithelial denudation, loss of crypts, ulceration, edema and leukocyte infiltration using criteria that have been described previously (see Perretti, F. et al., 2009, Nat Rev Immunol 9:62-70)

[2] = tested on: IFN-γ; assay: Colon cytokine mRNA by real-time PCR, DSS mice; format: in vivo; conditions: MC-12 at either dose (5 or 25 mg/kg)
Procedure: (§1) Expression of inflammatory cytokines TNF-α, IFN-γ, IL-1β, IL-6 and IL-10 in the colon was determined by measuring corresponding mRNA levels using real-time PCR. About 100 mg colon tissue were placed in 1 ml of cold Trizol (Invitrogen Life Technologies, Carlsbad, Calif.), immediately homogenized with a rotor power homogenizer, and RNA was extracted according to the manufacturer's instructions. Total RNA was retrotranscribed with M-MLV reverse transcriptase (Invitrogen Life Technologies, Carlsbad, Calif.) using random primers. Real-time quantitative PCR was performed in a CFD-3200 Opticon detector (BioRad, Hercules, Calif., USA) using QuantiTect SYBR Green PCR Kits (Qiagen, Valencia Calif., USA). The PCR cycling conditions were: 40 cycles of 60 seconds at 94° C., 30 seconds at 51.4° C. and 30 seconds at 72° C. PCR primers (forward and reverse primers) were designed based on published sequences: TNF-α: AGGCTGCCCCGACTACGT (SEQ ID NO:12) and […] (SEQ ID NO:13); IFN-γ: CAGCAACAGCAAGGCGAAA (SEQ ID NO:14) and CTGGACCT GTGGGTTGTTGAC (SEQ ID NO:15); IL-1β: […] (SEQ ID NO:16) and […] (SEQ ID NO:17); IL-6: […] (SEQ ID NO:18) and […] (SEQ ID NO:19); […]: […] (SEQ ID NO:20) and […] (SEQ ID NO:21); β-actin: […] (SEQ ID NO:20) and […] (SEQ ID NO:21). Relative expression levels of mRNA were normalized to β-actin.

[3] = tested on: IL-10; assay: Colon cytokine mRNA by real-time PCR, DSS mice; format: in vivo; conditions: MC-12 at either dose (5 or 25 mg/kg)
Procedure: as §1

[4] = tested on: IL-1β; assay: Colon cytokine mRNA by real-time PCR, DSS mice; format: in vivo; conditions: MC-12 at either dose (5 or 25 mg/kg)
Procedure: as §1

[5] = tested on: IL-6; assay: Colon cytokine mRNA by real-time PCR, DSS mice; format: in vivo; conditions: MC-12 at either dose (5 or 25 mg/kg)
Procedure: as §1

[6] = tested on: TNF-α; assay: Colon cytokine mRNA by real-time PCR, DSS mice; format: in vivo; conditions: MC-12 at either dose (5 or 25 mg/kg)
Procedure: as §1

[7] = tested on: NF-κB; assay: Phospho-NF-κB p65 immunohistochemistry of colonic mucosa, DSS mice; format: in vivo; conditions: for NF-κB activation / nuclear translocation in colonic mucosa: MC-12 5 and 25 mg/kg, ip and po
Excerpt: NF-κB is the master regulator of inflammation, controlling the transcription of many genes related to this complex process. It is also the molecular target of the activity of MC 12. Therefore, we determined by immunohistochemistry the level of NF-κB activation in the colonic mucosa of our four study groups of mice. There was minimum or […] activation of NF-κB in the colon of control animals (FIG. 4A). DSS, as expected, activated NF-κB in both colonic crypts and stromal cells (FIG. 4B).
The level of NF-κB activation in the colonic mucosa was determined by immunohistochemistry (FIG. 9). NF-κB is the molecular target of MC-12. Immunohistochemical staining for phospho-NF-κB (activate form of NF-κB) was performed on the colon tissue samples. Briefly, paraffin-embedded sections (4 μm thick) were deparaffinized, rehydrated, and microwave heated for 15 minutes in 0.01 mol/L citric acid buffer (pH 6.0) for antigen retrieval. Then, 3% hydrogen peroxide was applied to block endogenous peroxidase activity. After 30 minutes of blocking with normal serum (Invitrogen, Carlsbad, Calif.), the primary rabbit anti-phospho-NF-κB p65 antibody (Cell Signaling) or corresponding control isotype IgG were applied and incubated overnight at 4° C. Slides were washed thrice with PBS, each for 5 minutes. The biotinylated secondary antibody and the streptavidin-biotin complex were applied, each for 60 minutes incubation and following a thrice-wash at room temperature. After rinsing with PBS, the slides were immersed for 10 minutes in 3,3′-diaminobenzidine (Sigma, St. Louis, Mo.) solution (0.4 mg/mL, with 0.003% hydrogen peroxide), monitored under microscope. The reactions were stopped with distilled water. The slides were counterstained with hematoxylin, dehydrated, and coverslipped. Five photos per section were taken and the positive luminosity was evaluated using PhotoShop program.

[8] = tested on: NF-κB in NCM 460 cells (normal colon epithelial cells); assay: NF-κB DNA binding activity (EMSA) in DSS-treated NCM460 cells; format: cell-based
[9] = 2% DSS, MC12 40 or 80 μg/mouse ip

Gln-Ala-Trp (QAW) [MC12]
DSS-induced colonic inflammation (H&E histology) ([1]; 40 μg per mouse ip): significantly decreased DSS-induced colonic inflammation
DSS-induced colonic inflammation (H&E histology) ([1]; 80 μg per mouse ip): also decreased DSS-induced colonic inflammation
weight loss ([1]; 2% DSS 7 days, MC12 40 or 80 μg/mouse ip): dose-dependent reduction in weight loss
colon length (DSS-induced reduction) [1, 9]: prevented this reduction in colon length in a dose-dependent manner
histological colitis score [1, 9]: reduced the histological colitis score dose-dependently
change in body weight ([1]; 2% DSS, higher dose 80 μg/day ip, day 7): essentially no change in their weight
histological colitis score, significance of reduction ([1]; higher MC12 dose (80 μg)): statistically significant
IFN-γ mRNA level in colon [2]: below baseline
IL-10 mRNA level in colon [3]: below baseline
IL-1β mRNA level in colon [4]: essentially normalized
IL-6 mRNA level in colon [5]: below baseline
TNF-α mRNA level in colon [6]: essentially normalized
NF-κB activation in colonic mucosa ([7]; MC12 40 and 80 μg ip): less NF-κB nuclear translocation; also recorded: markedly decreased this effect of DSS
NF-κB activation / nuclear translocation in colonic mucosa ([7]; listed as MC 12): marked decrease of NF-κB nuclear translocation
NF-κB activation / nuclear translocation in colonic mucosa ([7]; listed as MC-12): markedly decreased this effect of DSS in a clear dose-dependent manner
NF-κB activation in colonic mucosa ([7]; highest dose 25 mg/kg): essentially normalizing it
DSS-induced NF-κB-DNA binding activity (NF-κB activation) ([8]; 30 μM, listed as MC 12): significantly blocked this effect
DSS-induced NF-κB-DNA binding activity (NF-κB activation) ([8]; 30 μM, listed as MC-12): essentially eliminated NF-κB activation
DSS-induced NF-κB-DNA binding activity (NF-κB activation) ([8]; 300 μM, listed as MC 12): significantly blocked this effect
DSS-induced NF-κB-DNA binding activity (NF-κB activation) ([8]; 300 μM, listed as MC-12): essentially eliminated NF-κB activation
